Experimental data from PMC10046037, “GABRG2 Variants Associated with Febrile Seizures” (Biomolecules, 2023).

Target: T1, α1β3γ2 GABAA receptor, γ2R224X variant (Homo sapiens, UniProt P14867+P28472)
T1 construct: expressed in transfected cells; host or cells: HEK293T
T1 sequence (P14867 28-456): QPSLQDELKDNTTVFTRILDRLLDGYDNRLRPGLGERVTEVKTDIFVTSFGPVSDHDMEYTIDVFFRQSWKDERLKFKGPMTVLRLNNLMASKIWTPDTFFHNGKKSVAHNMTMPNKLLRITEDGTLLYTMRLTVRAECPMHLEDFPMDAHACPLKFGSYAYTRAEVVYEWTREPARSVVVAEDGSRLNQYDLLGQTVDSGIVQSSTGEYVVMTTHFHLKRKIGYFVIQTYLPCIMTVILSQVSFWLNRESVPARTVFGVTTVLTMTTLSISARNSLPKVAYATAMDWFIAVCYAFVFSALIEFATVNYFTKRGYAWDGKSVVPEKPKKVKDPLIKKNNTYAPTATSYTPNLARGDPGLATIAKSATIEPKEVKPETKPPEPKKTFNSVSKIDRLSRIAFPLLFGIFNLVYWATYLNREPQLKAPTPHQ
T1 sequence (P28472 1-473 isoform P28472-2): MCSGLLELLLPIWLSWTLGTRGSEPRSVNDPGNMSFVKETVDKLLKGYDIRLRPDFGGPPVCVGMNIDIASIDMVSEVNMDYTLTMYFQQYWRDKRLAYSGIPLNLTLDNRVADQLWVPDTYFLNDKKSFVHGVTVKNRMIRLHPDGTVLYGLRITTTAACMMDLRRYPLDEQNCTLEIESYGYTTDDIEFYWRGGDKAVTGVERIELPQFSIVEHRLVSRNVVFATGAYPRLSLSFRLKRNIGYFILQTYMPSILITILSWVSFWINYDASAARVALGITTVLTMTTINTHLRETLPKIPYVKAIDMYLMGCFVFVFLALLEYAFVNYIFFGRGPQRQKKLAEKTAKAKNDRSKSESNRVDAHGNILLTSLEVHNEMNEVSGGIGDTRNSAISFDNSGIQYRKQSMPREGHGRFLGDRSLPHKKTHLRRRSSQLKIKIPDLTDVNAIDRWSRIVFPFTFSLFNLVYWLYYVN
Assay: Automated patch clamp of GABA-elicited currents (SyncroPatch 384PE), γ2R224X
Assay type: cell-based
Settings: mean
Description: The coding sequences of human α1 (GABRA1, NM_000806), β3 (GABRB3, NM_021912), and γ2 (GABRG2, NM_198904.2) GABAAR subunits were subcloned into the pcDNA3.1 expression vectors (Invitrogen, Waltham, MA, USA).
HEK293T cells (ATCC, CRL-11268) were cultured at 37 °C in a humidified 5% CO2 incubator and maintained in Dulbecco’s modified Eagle’s medium (Invitrogen) supplemented with 10% fetal bovine serum (Life Technologies, Carlsbad, CA, USA), and 100 IU/mL of penicillin/streptomycin (Life Technologies). For the expression experiments, 4 × 10^5 cells were transfected using polyethylenimine (PEI) reagent (40 kD, Polysciences, Warrington, PA, USA) at a DNA: to transfection reagent ratio of 1:2.5 and harvested 36 h after transfection. To express WT and variant α1β3γ2 receptors, a total of 3 µg of α1, β3, and γ2 (WT or mutant) subunit cDNAs were transfected at a ratio of 1:1:1 into 60 mm culture dishes. For the mock-transfected condition, an empty pcDNA3.1 vector was added for a final cDNA transfection amount of 3 μg. For the electrophysiology experiments, 2.5 × 10^5 cells were plated in 100 mm culture dishes and transfected after 24 h with 3 μg of cDNA of each α1, β3, γ2 (wild-type or mutant) subunit, using X-tremeGENE HP DNA transfection Reagent (Roche Diagnostics, Basel, Switzerland), following the manufacturer’s protocol. Recordings were obtained forty-eight hours after transfection.
Whole-cell patch clamp recordings were conducted according to the manufacturer’s standard procedure for the SyncroPatch 384 [31]. Whole-cell voltage-clamp recordings were performed at room temperature on HEK293T cells 48 h after transfection with GABAAR subunits, using the SyncroPatch 384PE (Nanion Technologies, Munich, Germany). Cells, at a concentration of 400,000 cells/mL, were harvested in suspension in external solution containing 140 mM of NaCl, 2 mM of CaCl2, 4 mM of KCl, 1 mM of MgCl2, 5 mM of glucose, and 10 mM of HEPES (pH 7.4 with NaOH, 298 mOsm). The cells were loaded in a multi-hole (4 holes per well) 384-well Nanion patch clamp (NPC) chip with a thick borosilicate glass bottom and an average resistance pore size of […]. Built-in electrophysiological protocols were used, and the data were digitized using PatchControl 384 (Nanion Technologies) application. Using PatchControl 384, electrophysiological parameters, such as seal resistance, capacitance, and series resistance, were determined for each well after the application of a test pulse, and subsequently monitored over time. […] The currents were normalized to the maximal response of each well, and the concentration–response curves were calculated from single-point additions. The EC50 values for each variant or wild-type receptor were calculated across multiple wells for each experimental condition.

Deactivation (1 mM GABA for 5 ms, HEK293T, -80 mV): 350.1 ms | IMAX (maximal GABA-evoked peak current) (1 mM GABA for 5 ms, HEK293T): 0.85 nA | IMAX variant/IMAX WT (1 mM GABA): 42.52% | Rise Time (10–90% rise time, 1 mM GABA for 5 ms, HEK293T): 72.64 ms
SMILES: NCCCC(=O)O [GABA, γ-aminobutyric acid]
